According to US5717094A, “Process and intermediates for preparing compounds having a disubstituted acetylene moiety and retinoic acid-like biological activity” (Allergan, priority 1991, dated 1998):

How the values were obtained:
[1] = tested on: ornithine decarboxylase (ODC), TPA induced; assay: Inhibition of TPA-induced ornithine decarboxylase (ODC) activity, essentially the method of Verma & Boutwell; format: biochemical; conditions: concentration attaining 80% inhibition of TPA induced ODC activity
From the text: The retionic acid like activity of these compounds was confirmed through the classic measure of retionic acid activity involving the effects of retionic acid on ornithine decarboxylase. The original work on the correlation between retionic acid and decrease in cell proliferation was done by Verma & Boutwell, Cancer Research, 1977, 37, 2196-2201. That reference discloses that ornithine decarboxylase (ODC) activity increased precedent to polyamine biosynthesis. It has been established elsewhere that increases in polyamine synthesis can be correlated or associated with cellular proliferation. Thus, if ODC activity could be inhibited, cell hyperproliferation could be modulated. Although all causes for ODC activity increase are unknown, it is known that 12-0-tetradecanoylphorbol-13-acetate (TPA) induces ODC activity.
By way of example of retionic acid-like activity it is noted that in the assay conducted essentially in accordance with the method of Verman & Boutwell, ibid, the following examples of compounds made in accordance with the process of the present invention (Compounds 10, 11 and 12) attained an 80% inhibition of TPA induced ODC activity at the following concentrations (IC80): […]

[2] = tested on: ornithine decarboxylase (ODC), TPA induced; conditions: background statement on retinoic acid; Verma & Boutwell, Cancer Research, 1977, 37, 2196-2201; cited from earlier work

Row | IC80 conc [1] | SMILES | inhibition of induction of ODC activity by TPA [2]
1 | 0.2 mmols | CCOC(=O)c1ccc(C#Cc2cc3c(cc2C)OC(C)(C)CC3(C)C)nc1 [Compound 12, Ethyl-6-[(2,2,4,4,7-pentamethyl-6-chromanyl)-ethynyl nicotinate] | 
2 |  | CC1=C(/C=C/C(C)=C/C=C/C(C)=C/C(=O)O)C(C)(C)CCC1 [Retionic acid, retionic acid] | inhibits this induction of ODC activity by TPA
3 | 0.69 mmols | CCOC(=O)c1ccc(C#Cc2ccc3c(c2)C(C)(C)CC(C)(C)S3)nc1 [Compound 10] | 
4 | 0.13 mmols | CCOC(=O)c1ccc(C#Cc2ccc3c(c2)C(C)(C)CC(C)(C)O3)nc1 [Compound 11] | 
